# Tested on: newborn piglets
# Experiment: Meconium aspiration model: newborn piglets given human meconium by deep intratracheal instillation, monitored 7 days
# Type: in vivo
# Conditions: 3 ml/kg of 20% human meconium intratracheal, daily oral dosage of 0.7 mg/kg started within one hour after birth, versus placebo
# Experimental: Immediately after birth, twelve newborn piglets are given 3 ml/kg of a 20% solution of human meconium by deep intratracheal instillation. Next, the piglets are randomly assigned to two groups of each six animals. Within one hour after birth, one group is treated with a daily oral dosage of 0.7 mg/kg estetrol whilst the control group is treated with placebo. During the next 7 days the condition of the piglets belonging to both groups are monitored. […] Example 1 was repeated, except that this time one group was treated with a daily oral dosage of 30 μg/kg estradiol instead of estetrol.
smiles,measurement,value
C[C@]12CC[C@@H]3c4ccc(O)cc4CC[C@H]3[C@@H]1[C@@H](O)[C@@H](O)[C@@H]2O [estetrol],incidence of severe complications of MAS versus control group,substantially lower
